The text below walks through data of publication PMC10002984, “Dual PTP1B/TC-PTP Inhibitors: Biological Evaluation of 3-(Hydroxymethyl)cinnoline-4(1H)-Ones” (International Journal of Molecular Sciences, 2023).

Assay [1] relates to PTP1B and TC-PTP in the hypothalamic arcuate nucleus. More on the design: method as in PMID 30525586. To be noted: administered to mice; cited from earlier work.
Assay [2] concerns the target T1, human recombinant TC-PTP protein (Homo sapiens, UniProt P17706).
T1 construct: purchased Sigma-Aldrich SRP0218
T1 sequence (P17706 1-415): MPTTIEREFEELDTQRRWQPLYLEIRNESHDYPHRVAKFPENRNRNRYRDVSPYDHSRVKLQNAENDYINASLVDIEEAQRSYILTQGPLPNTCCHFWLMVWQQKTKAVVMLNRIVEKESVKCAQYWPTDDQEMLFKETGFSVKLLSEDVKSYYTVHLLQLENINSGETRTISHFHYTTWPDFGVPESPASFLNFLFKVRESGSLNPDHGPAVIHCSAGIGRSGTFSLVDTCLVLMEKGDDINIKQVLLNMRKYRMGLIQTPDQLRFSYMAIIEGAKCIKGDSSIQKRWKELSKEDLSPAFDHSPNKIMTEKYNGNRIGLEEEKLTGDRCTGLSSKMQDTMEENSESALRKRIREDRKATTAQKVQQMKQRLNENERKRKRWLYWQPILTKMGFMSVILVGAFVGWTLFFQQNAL
The assay is described as follows: Phosphatase activity assay with DiFMUP, TC-PTP inhibition. To be noted: DiFMUP 35 µM, 80 ng/mL TC-PTP, compounds 0.1–80 μM; M ± SEM (n = 24); read-out: IC50 for the inhibitory effect on TC-PTP activity. It counts as biochemical. As for the experimental part: (§1) The measurement of the activity of the phosphatases PTP1B and TC-PTP and their inhibition was carried out using 6,8-difluoro-4methylumbelliferyl phosphate (DiFMUP), as previously described. The stock solution of recombinant human PTP1B protein (#ab51277, Abcam, Cambridge, UK), at a concentration of 1 µg/µL, was prepared in 25 mM Tris–HCl (pH 7.5), 20% glycerol, 2 mM β-mercaptoethanol, 1 mm EDTA, and 1 mM DTT, and stored at −20 °C. Active human recombinant TC-PTP protein was purchased from Sigma-Aldrich (#SRP0218, Saint Louis, MO, USA) as the aqueous buffer solution at a concentration of 2.9 mg/mL, and aliquots were stored at −80 °C. The fluorogenic substrate DiFMUP (#D6567, Molecular Probes, Thermo Fisher Scientific, Waltham, MA, USA) was dissolved at a concentration of 10 mM in N,N-dimethylformamide and stored in aliquots at −20 °C. The 6,8-difluoro-7-hydroxy-4-methylcoumarin (DiFMU, #D6566, Molecular Probes, Thermo Fisher Scientific, Waltham, MA, USA) was used as a reference fluorescent standard. For the IC50 determination, the assay was carried out in black flat bottom 96-well plates using a reaction volume of 100 µL. The phosphatases (PTP1B or TC-PTP) were preincubated with the tested compounds (0.1–80 µM) in 50 mM HEPES (pH 6.9), 100 mM NaCl, 1 mM EDTA, 2 mM DTT, 0.1 mg/mL BSA for 5 min at 37 °C. The following concentrations of the compounds were studied: 0.1, 0.2, 0.5, 1, 2, 5, 10, 20, 40, and 80 μM. The reactions were initiated by the addition of the fluorogenic substrate DiFMUP and diluted in the assay buffer. Progress curves for hydrolysis reaction were obtained with 25 µM of DiFMUP for 80 ng/mL PTP1B, and 35 µM of DiFMUP for 80 ng/mL TC-PTP. Fluorescence excitation of hydrolyzed DiFMUP and the fluorescent standard DiFMU was monitored at 355 nm and emission was detected at 460 nm for 6–10 min at 30 s intervals in a Fluoroskan Ascent FL microplate reader (Thermo Electron Corporation, Vantaa, Finland). Initial velocities of the reactions were used to calculate the IC50 values using GraphPad Prism.
(§2) The data on food intake, body weight, and biochemical parameters in rats, as well as the PCR data, were analyzed using the IBM SPSS Statistics 22 software (“IBM”, Armonk, NY, USA), and the results are presented as mean ± standard error of the mean (M ± SEM). All differences are considered significant at p < 0.05. The calculation of the IC50 values of the studied inhibitors for the initial velocities of enzymatic reactions (PTP1B, TC-PTP) was carried out using the nonlinear regression analysis with GraphPad Prism 8 (“GraphPad Software, Inc.”, Boston, MA, USA). The statistical analysis was carried out using the Wilcoxon test for pairwise comparison and Dunn’s test for multiple comparisons.

Assay [3] concerns the target T2, recombinant human PTP1B protein (Homo sapiens, UniProt P18031).
T2 construct: purchased Abcam ab51277
T2 sequence (P18031 1-321 limits assumed): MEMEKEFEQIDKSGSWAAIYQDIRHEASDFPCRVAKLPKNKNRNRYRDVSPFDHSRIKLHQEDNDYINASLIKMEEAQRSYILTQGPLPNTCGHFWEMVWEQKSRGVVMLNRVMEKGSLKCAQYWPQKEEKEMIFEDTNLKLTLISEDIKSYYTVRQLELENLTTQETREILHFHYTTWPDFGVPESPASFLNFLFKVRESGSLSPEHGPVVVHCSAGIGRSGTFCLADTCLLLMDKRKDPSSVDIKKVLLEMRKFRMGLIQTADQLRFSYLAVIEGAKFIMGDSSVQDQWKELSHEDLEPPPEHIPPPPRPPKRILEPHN
Kind of assay: Phosphatase activity assay with DiFMUP, PTP1B inhibition. Format: biochemical. How it is done: as §1, §2

Assay [4] concerns male rats with HFD-induced obesity. Kind of assay: Blood glucose, insulin and leptin levels and insulin resistance index in obese rats. Format: in vivo, male Wistar rats. As for the experimental part:
(§3) Further, six groups were formed: control (Con, n = 10), obesity (Ob, n = 10), obese rats with five-day treatment with compounds 1 (Ob + 1, n = 5), 2 (Ob + 2, n = 5), 3 (Ob + 3, n = 10), and 4 (Ob + 4, n = 10). All compounds were administered in DMSO (300 µL) at a daily dose of 7 mg/kg (1 and 2), 8 mg/kg (3), and 10 mg/kg (4) (i.p.), based on the results of the preliminary experiments. The used doses of compounds 1–4, in terms of the number of moles of each compound per kg of animal body weight, were equivalent. Control and obese rats received DMSO in the same volumes (300 µL), instead of the tested compounds. During the five days of the experiment, all animals were transferred to standard food and had free access to food and drinking water. […] The test was carried out on the morning of the next day after the last (fifth) injection of the compounds or DMSO, after a 10 h fast. The rest of the animals (n = 5 in each group) were anesthetized and decapitated on the last day of the experiment. The blood and liver samples were taken to measure blood glucose and hormone levels and gene expression in the liver.
The glucose levels in the blood obtained from the tail vein were measured using a glucometer (Life Scan Johnson & Johnson, Denmark) and the test strips “One Touch Ultra” (USA). The levels of insulin and leptin in rat serum were estimated with the “Rat Insulin ELISA” (Mercodia AB, Uppsala, Sweden) and “ELISA for Leptin, Rat” (Cloud-Clone Corporation, Houston, TX, USA) kits. The GTT was carried out using a single injection of glucose (2 g/kg, i.p.) after 10 h of fasting, as described earlier. The blood glucose levels were measured before (0 min) and 15, 30, 60, and 120 min after the glucose load.

For assay [5], the system named is Shp1 gene. The assay is described as follows: Gene expression in the liver of obese rats (qPCR), Shp1 gene. It counts as in vivo, rat. To be noted: five-day treatment. As for the experimental part: as §3
The total RNA was isolated from the liver samples of rats using the “ExtractRNA Reagent” (Evrogen, Moscow, Russia), and the samples containing 1 μg of RNA were transcribed to cDNA using the random oligodeoxynucleotide primers and the “MMLV RT kit” (Evrogen, Russia). The amplification procedure was carried out in the mixture containing 10 ng of reverse transcribed product, 0.4 μM of the forward and reverse primers, and the “qPCRmix-HS SYBR + LowROX kit” (Evrogen, Russia). The amplified signals were detected using the “Applied Biosystems® 7500 Real-Time PCR System” (Life Technologies, Carlsbad, CA, USA, Thermo Fisher Scientific Inc., USA). The primers that were used to assess the expression of genes encoding the phosphatase PTP1B, TC-PTP, and SHP1 and the insulin and leptin receptors are presented in Table 4. The obtained data were calculated with the delta–delta Ct method and expressed as a fold expression, relative to the corresponding control. The expression of the gene encoding 18S RNA was used as an endogenous control.

The test system of assay [6] is PTP1B. Further details: method as in doi:10.1134/S0022093018040038. The settings on record: cited from earlier work.
The subject of assay [7] is diet-induced obese rats. More on the design: method as in doi:10.1134/S0022093022060187. The settings on record: cited from earlier work.
For assay [8], the system named is rat hypothalamic neurons. More on the design: method as in doi:10.1134/S0022093018040038. To be noted: cited from earlier work.
[9] abbreviates: blood, after five-day i.p. treatment, 7 mg/kg (1, 2), 8 mg/kg (3), 10 mg/kg (4), M ± SEM, n = 5.
Where [10] appears, read: blood, before treatment (baseline), M ± SEM, n = 5.

The structures appear in SMILES notation. Marks after values point to notes of the source that are not given here.

Regarding `CC1=C(O)C(=O)C=C2C1=CC=C1[C@@]2(C)CC[C@@]2(C)[C@@H]3C[C@](C)(C(=O)O)CC[C@]3(C)CC[C@]12C` [Celastrol], in assay [1], the “activity of both phosphatases (PTP1B, TC-PTP) in the hypothalamic arcuate nucleus” value is “reduced”; the “food intake and body weights” value is “significantly reducing”.

Consider `O=c1c(CO)n[nH]c2ccc(F)cc12` [Compound 2], for which the concentration for half-maximal inhibition (IC50) in assay [2] was 42.8 ± 9.93 µM. The IC50 in assay [3] (DiFMUP 25 µM, 80 ng/mL PTP1B, compounds 0.1–80 μM, M ± SEM (n = 24), read-out: IC50 for the inhibitory effect on PTP1B activity) amounted to 6.01 ± 0.59 µM. The “selectivity for PTP1B compared to that for TC-PTP” value in assay [3] (from IC50 values of Table 1) is given as 5–7 fold. In assay [4] (setting [9]), the “Glucose, After” value is 5.68 ± 0.09 ^a mM; the “Insulin, After” value is 1.19 ± 0.13 ^a,c ng/mL; the “Leptin, After” value is 2.18 ± 0.22 ^a,c ng/mL. In assay [4] (setting [10]), the “Glucose, Before” value was 5.82 ± 0.22 ^a mM; the “Insulin, Before” value is listed as 1.65 ± 0.17 ^a ng/mL; the “Leptin, Before” value was 3.27 ± 0.38 ^a ng/mL. The “IR (insulin resistance index), After” value in assay [4] (product of blood glucose and insulin concentrations, after five-day i.p. treatment, 7 mg/kg (1, 2), 8 mg/kg (3), 10 mg/kg (4)) is given as 6.79 ± 0.76 ^a arb.Units. Besides, the “IR (insulin resistance index), Before” value in assay [4] (product of blood glucose and insulin concentrations, before treatment (baseline)) is given as 9.68 ± 1.27 ^a arb.Units. For the same compound, in assay [5], the “expression of the Shp1 gene in the liver” value is listed as “increased”.

On to `CCOC(=O)c1ccc2[nH]nc(CO)c(=O)c2c1` [PI4, ethyl 3-(hydroxymethyl)-4-oxo-1,4-dihydrocinnoline-6-carboxylate], for which the “activity towards PTP1B” value in assay [6] was “inhibitory activity”. In addition, in assay [7], the “body and fat weights” value is listed as “reduced”; the food intake entry is on record as “suppressed”. For the same compound, the “effect on components of the insulin and leptin signaling pathways (Akt, STAT3)” value in assay [8] is on record as “stimulating effect”.

Usually IC50 stands for the point on the concentration scale where inhibition reaches its midpoint.
